# In patent publication US5993889A, “Trehalose phosphorylase, its preparation and use” (Kabushiki Kaisha Hayashibara Seibutsu Kagaku Kenkyujo, priority 1996, dated 1999):
# Target: T1, trehalose phosphorylase (Thermoanaerobacter brockii, UniProt Q8L164)
# T1 construct: recombinant E. coli enzyme (pTTP4) equivalent
# T1 sequence (Q8L164 2-774): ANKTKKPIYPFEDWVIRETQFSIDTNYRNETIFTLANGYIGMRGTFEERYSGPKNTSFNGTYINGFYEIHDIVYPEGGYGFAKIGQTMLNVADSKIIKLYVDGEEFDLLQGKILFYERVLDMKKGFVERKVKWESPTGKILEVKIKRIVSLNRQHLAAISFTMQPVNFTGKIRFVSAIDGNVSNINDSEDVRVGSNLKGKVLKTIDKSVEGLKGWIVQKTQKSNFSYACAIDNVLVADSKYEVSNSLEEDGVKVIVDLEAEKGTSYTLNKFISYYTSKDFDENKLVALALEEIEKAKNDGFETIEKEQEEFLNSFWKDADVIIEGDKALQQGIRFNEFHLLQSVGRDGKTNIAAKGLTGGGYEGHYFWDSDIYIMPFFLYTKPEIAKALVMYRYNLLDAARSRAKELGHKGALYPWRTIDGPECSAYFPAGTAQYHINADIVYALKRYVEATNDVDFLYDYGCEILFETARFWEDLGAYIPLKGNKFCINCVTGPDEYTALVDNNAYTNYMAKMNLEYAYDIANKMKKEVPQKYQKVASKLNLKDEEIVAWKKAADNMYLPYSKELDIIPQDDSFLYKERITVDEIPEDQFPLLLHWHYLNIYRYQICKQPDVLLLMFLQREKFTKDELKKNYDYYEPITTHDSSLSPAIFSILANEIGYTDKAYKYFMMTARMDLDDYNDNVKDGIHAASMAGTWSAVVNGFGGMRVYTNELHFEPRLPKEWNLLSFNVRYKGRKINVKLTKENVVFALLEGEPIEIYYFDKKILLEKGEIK
# Assay: Substrate specificity for saccharide-hydrolyzing reaction by trehalose phosphorylase (TLC)
# Format: biochemical, Thermoanaerobium brockii
# Set-up: key: +: Hydrolyzed by the action of the present trehalose phosphorylase.; -: Not hydrolyzed by the action of the present trehalose phosphorylase
# Details: saccharide 2 w/v %, 10 units/g saccharide purified enzyme, 5 mM disodium hydrogenphosphate, 60° C., pH 7.0, 24 hours
# Protocol: An aqueous solution of a saccharide selected from D-glucose, maltose, sucrose, lactose, trehalose, neotrehalose, cellobiose, melibiose, kojibiose, isomaltose, sophorose, gentibiose, nigerose, laminaribiose, maltopentaose, and 4-O-α-D-glucosyltrehalose was mixed with 10 units/g saccharide, d.s.b., of a purified trehalose phosphorylase obtained by the method in Experiment 2, and incubated in the presence of 5 mM disodium hydrogenphosphate at 60° C. and pH 7.0 for 24 hours. The saccharide concentration of each reaction solution was 2 w/v %. Pre-reaction solutions and post-reaction mixtures were subjected to thin layer chromatography (hereinafter abbreviated as "TLC") using "KIESELGEL 60 (20×20 cm)", an aluminum plate for TLC commercialized by Merck & Co., Inc., Rahway, USA. Samples were developed once at ambient temperature on the plate using 1-butanol/pyridine/water (=7:3:1 by volume) as a developing solvent system, and the plate was sprayed with 20 v/v % sulfuric acid/methanol solution, and heated at 110° C. for about 10 min for coloration. Comparing spots of the solutions and mixtures detected on the plates, it was checked whether the enzyme acted on the saccharides.
row,Compound,Decomposition
1,OC[C@H]1O[C@@H](O[C@H]2[C@H](O)[C@@H](O)C(O)O[C@@H]2CO)[C@H](O)[C@@H](O)[C@H]1O (stereo partly shown) [Lactose],-
2,OC[C@H]1O[C@@H](O[C@H]2C(O)O[C@H](CO)[C@@H](O)[C@@H]2O)[C@H](O)[C@@H](O)[C@@H]1O (stereo partly shown) [Sophorose],-
3,OC[C@H]1O[C@@H](O[C@H]2[C@H](O)[C@@H](CO)OC(O)[C@@H]2O)[C@H](O)[C@@H](O)[C@@H]1O (stereo partly shown) [Laminaribiose],-
4,OC[C@H]1O[C@@](CO)(O[C@H]2O[C@H](CO)[C@@H](O)[C@H](O)[C@H]2O)[C@@H](O)[C@@H]1O [Sucrose],-
5,OC[C@H]1O[C@H](O[C@H]2[C@H](O)[C@@H](CO)OC(O)[C@@H]2O)[C@H](O)[C@@H](O)[C@@H]1O (stereo partly shown) [Nigerose],-
6,OC[C@H]1O[C@@H](O[C@H]2[C@H](O)[C@@H](O)C(O)O[C@@H]2CO)[C@H](O)[C@@H](O)[C@@H]1O (stereo partly shown) [Cellobiose],-

# Target: T1, trehalose phosphorylase
# Assay: Trehalose phosphorylase activity assay: inhibition and activation by added substances
# Format: biochemical, Thermoanaerobium brockii
# Details: one mM
# Protocol: The present trehalose phosphorylase activity is assayed as follows: Add 0.2 ml of an enzyme solution to 2 ml of 20 mM phosphate buffer (pH 7.0) containing 1.0 w/v % trehalose as a substrate, incubate the solution at 60° C. for 30 min, sample the reaction mixture in an amount of 0.5 ml, and incubate the sample at 100° C. for 10 min to suspend the enzymatic reaction. Add 0.5 ml of D-glucose oxidase/peroxidase reagent to the heated sample, stir the mixture, keep the mixture at 40° C. for 30 min, add 2.5 ml of 5-N hydrochloric acid, stir the resulting mixture, and measure the absorbance of the mixture at a wavelength of 525 nm. One unit of the enzyme activity is defined as the enzyme that forms one […] of D-glucose per one minute. The activity of maltose- and kojibiose-phosphorylases can be assayed similarly as the same assay as indicated above except that the trehalose as a substrate is respectively replaced with maltose and kojibiose.
# Influences of temperatures and pHs on the present trehalose phosphorylase activity were studied in accordance with the assay for enzyme activity. To study the influence of temperatures, the enzyme was reacted at temperatures of about 50-85° C. in place of 60° C. as used in the enzyme assay. In the case of studying the influence of pHs, the enzyme was reacted at pHs of about 4-9 in place of the buffer's pH as used in the assay for the enzyme activity. In both cases, the enzymatic reactions were suspended similarly as in the enzyme assay, followed by quantifying the formed glucose. […] The thermal stability of the enzyme was determined by incubating the enzyme dissolved in 10 mM phosphate buffer (pH 7.0) at a temperature of about 40-85° C. for one hour, cooling the incubated enzyme, and assaying for the residual enzyme activity according to the enzyme assay. The pH stability of the enzyme was determined by dissolving the enzyme in buffers with different pHs of about 4-10, keeping each enzyme solution at 4° C. for 24 hours, adjusting each solution to give a pH of 7.0, and assaying for the residual enzyme activity according to the enzyme assay. […] The enzyme activity was inhibited by one mM Cu^++, Pb^++, Zn^++, Hg^++, Mg^++, or Mn^++.
Compound,Enzyme activity inhibition,Activation and stabilization of the enzyme
[Mg+2] [Mg^++],inhibited,
[Cu+2] [Cu^++],inhibited,
[Hg+2] [Hg^++],inhibited,
[Pb+2] [Pb^++],inhibited,
[Mn+2] [Mn^++],inhibited,
O[C@H](CS)[C@H](O)CS (racemic) [dithiothreitol],,Activated
[Zn+2] [Zn^++],inhibited,
